Key:
[1] = tested on: MOG-induced experimental autoimmune encephalomyelitis (EAE); test: First MOG EAE protocol (murine multiple sclerosis model); assay type: in vivo, C57BL/6 mice; conditions: first 28-day study; MGBG 30 mpk BID, fingolimod 3 mpk QD; throughout/duration of experiment
From the text: An experimental murine model of multiple sclerosis employing a myelin oligodendrocyte glycoprotein (MOG) peptide to induce experimental autoimmune encephalomyelitis (EAE) was employed to determine the efficacy of MGBG in preventing and treating that disease. Because of its many similarities to MS, EAE is commonly used to study pathogenesis of autoimmunity, CNS inflammation, demyelination, cell trafficking, and tolerance induction. EAE is characterized by paralysis (in some models the paralysis is remitting-relapsing), CNS inflammation and demyelination. EAE is mediated primarily by dendritic cells, myelin-specific T cells (e.g. Th1 and Th17), and M1 macrophages. B cells may also play a role in some models of EAE. Body weight also tracks disease progression. EAE is induced in C57BL/6 mice by immunization with MOG35-55 or MOG1-125 in CFA emulsion followed by administration of pertussis toxin (PTX) in PBS. The emulsion provides antigen which initiates expansion and differentiation of MOG-specific autoimmune T cells. PTX enhances EAE development by providing additional adjuvant and facilitating entrance of autoimmune T cells into the CNS.
Chronic EAE develops in C57BL/6 mice after immunization with an emulsion of MOG35-55/CFA or MOG1-125/CFA followed by injection of pertussis toxin. This model is used to test the potential of compounds to prevent or mitigate EAE disease. It can be run with the compound dosed from the time of immunization (prophylactic treatment), or with the aim of reversing the course of disease and facilitating recovery by dosing the compound from the time of EAE onset (therapeutic treatment). The model uses female C57BL/6 mice of age 10 to 14 weeks at the start of the study. Typically, EAE develops 8-18 days after immunization. EAE development is usually followed for 4 weeks (28 days) after immunization.
In prophylactic studies, treatment begins before disease onset, at the time of immunization and group assignment. Mice are assigned to treatment groups in a balanced manner to achieve groups with similar distributions of body weights. Prophylactic studies assess if treatment will affect the course of disease both before and after the first clinical signs of EAE. To compensate for the stress of treatment in prophylactic treatment studies and achieve the target disease severity, EAE may be induced with a higher dose of pertussis toxin than used in therapeutic studies. The dose of pertussis toxin is based on expected stress due to dosing (route, frequency, and formulation of vehicle).
Clinically, EAE progression is scored on a scale of 0 to 5, wherein each score represents the following clinical observations:
Inflammatory foci of approximately 20 cells were counted in each H&E stained section. When inflammatory infiltrates consisted of more than 20 cells, an estimate was made of how many foci of 20 cells were present.
The demyelination score represents an estimate of demyelinated area for each section as follows:
Unless otherwise noted, statistical analysis was performed as follows: disease incidence compared using chi-square test; mean day of EAE onset, change in body weight, and number of apoptotic cells compared using 2-tailed Student's t-test; median day of EAE onset compared using Wilcoxon's survival test; mean maximum score (MMS), end score, and demyelination scores (LFB and H&E) compared using Wilcoxon's non-parametric test.
Ten week old female C57BL/6 mice weighing 18-23 g (Taconic Farms) were divided into four groups: mock immunized (n=3) and three MOG-immunized groups receiving MGBG at 30 mpk BID (as the di-HCl monohydrate with a correction factor of 1.49), fingolimod (FTY720) at 3 mpk QD with a second mock vehicle dose, or 0.9% saline vehicle BID (n=12 each). […]

[2] = tested on: PGE2 production in carrageenan air pouch; test: Carrageenan air pouch model; assay type: in vivo, Lewis rats; conditions: rat pouch fluid, 3 or 24 hours post-carrageenan; naproxen 10 mg/kg, dexamethasone 1 mg/kg
From the text: Injection of air subcutaneously will induce the formation of a connective tissue cavity lined with cells that resemble and function like a synovial lining. This method is commonly known as the Air Pouch Model and is a useful animal model of inflammation that can be generated in a relatively short period of time. The air pouch may be created by subcutaneous (SQ) injection of a volume of sterile air in the dorsal neck region. The model may be used to test the efficacy and potency of compounds such as polyamine analogues and polyamine biosynthesis inhibitors such as MGBG in reducing various cellular and biochemical indicators of inflammation when administered as an oral (PO) gavage administration. Healthy Male Lewis rats (Charles River Laboratories, Wilmington, Mass.) weighing between 175-200 g were used. […] A correction factor of 1.49 was used to account for the dihydrochloride salt/monohydrate form of MGBG. […] Air pouches were formed on the dorsum of the rats during the last 4 days of MGBG or vehicle administration prior to carrageenan injection. Briefly, rats were anesthetized with isoflurane, during which dorsal hair was removed and 20 mL of sterile air was injected subcutaneously into the intrascapular region. Pouches were allowed to develop for the next 4 days, with re-inflation (to maintain pouch volume) of pouches 1 day prior to carrageenan injection. One hour prior to carrageenan injection, animals were given their last dose of drug (MGBG, vehicle, naproxen, or dexamethasone). A 1% suspension of carrageenan (2 mL; FMC BioPolyer, Philadelphia, Pa.) suspended in saline was injected into the pouch cavity. At either 3 hours or 24 hours post-carrageenan injection, rats were euthanized by CO2 asphyxiation and 2.5 mL of PBS (Sigma Chemical, St. Louis, Mo.) was injected directly into the pouch. The pouch was opened with surgical scissors and the pouch fluid was collected using a transfer pipette. One aliquot was collected for measurement of total cell count with differential, and the other aliquot for PGE2 determination. […]

## CCCCCCCCc1ccc(CCC(N)(CO)CO)cc1 [fingolimod]
[1]
  mean clinical score (scale 0 to 5): 0

## COc1ccc2cc([C@H](C)C(=O)O)ccc2c1 [naproxen]
[2]
  production of PGE2 (inflammatory and basal levels): inhibited production of both inflammatory and basal levels

— patent publication US10085955B2, “Methods and compositions for treatment of demyelinating diseases” (Pathologica LLC, priority 2013, dated 2018)
